Data reported in PubChem BioAssay (NCI).
Several values for one entry are separate records, joined by “and”; a condition that tells them apart may be missing. Equal values may be shown once.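 Exposure lasted 48 hours, with cells grown in 96-well plates and compounds tested at five concentrations. GI50 marks 50% less growth. TGI marks complete inhibition of growth.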

Legend:
Experiment in all cases: NCI-60 cell line screen, 48 h
UACC-62 melanoma = tested on: UACC-62 melanoma
U251 CNS = tested on: U251 CNS
MOLT-4 leukemia = tested on: MOLT-4 leukemia
SN12C renal = tested on: SN12C renal
UACC-257 melanoma = tested on: UACC-257 melanoma
HOP-62 NSCLC = tested on: HOP-62 NSCLC
SK-MEL-28 melanoma = tested on: SK-MEL-28 melanoma
M14 melanoma = tested on: M14 melanoma
OVCAR-5 ovarian = tested on: OVCAR-5 ovarian
NCI-H23 lung = tested on: NCI-H23 lung
SF-268 CNS = tested on: SF-268 CNS
PC-3 prostate = tested on: PC-3 prostate
SNB-19 CNS = tested on: SNB-19 CNS
SNB-75 CNS = tested on: SNB-75 CNS
RXF 393 renal = tested on: RXF 393 renal
TK-10 renal = tested on: TK-10 renal
NCI-H226 lung = tested on: NCI-H226 lung
MDA-MB-435 = tested on: MDA-MB-435
HT29 colon = tested on: HT29 colon
A549 NSCLC = tested on: A549 NSCLC
HS 578T breast = tested on: HS 578T breast
SK-MEL-5 melanoma = tested on: SK-MEL-5 melanoma
HL-60(TB) leukemia = tested on: HL-60(TB) leukemia
ACHN renal = tested on: ACHN renal
COLO 205 colon = tested on: COLO 205 colon
HOP-92 NSCLC = tested on: HOP-92 NSCLC
SK-MEL-2 melanoma = tested on: SK-MEL-2 melanoma
NCI-H460 lung = tested on: NCI-H460 lung
CCRF-CEM leukemia = tested on: CCRF-CEM leukemia
NCI-H522 lung = tested on: NCI-H522 lung
HCT-15 colon = tested on: HCT-15 colon
786-0 renal = tested on: 786-0 renal
MDA-MB-231 breast = tested on: MDA-MB-231 breast
HCT-116 colon = tested on: HCT-116 colon
SF-295 CNS = tested on: SF-295 CNS
LOX IMVI melanoma = tested on: LOX IMVI melanoma
BT-549 breast = tested on: BT-549 breast
RPMI-8226 leukemia = tested on: RPMI-8226 leukemia
T-47D breast = tested on: T-47D breast
DU-145 prostate = tested on: DU-145 prostate
EKVX NSCLC = tested on: EKVX NSCLC
OVCAR-4 ovarian = tested on: OVCAR-4 ovarian
MALME-3M melanoma = tested on: MALME-3M melanoma
K-562 leukemia = tested on: K-562 leukemia
SK-OV-3 ovarian = tested on: SK-OV-3 ovarian
OVCAR-8 ovarian = tested on: OVCAR-8 ovarian
IGROV1 ovarian = tested on: IGROV1 ovarian
OVCAR-3 ovarian = tested on: OVCAR-3 ovarian
UO-31 renal = tested on: UO-31 renal
MCF7 breast = tested on: MCF7 breast
KM12 colon = tested on: KM12 colon
NCI/ADR-RES ovarian = tested on: NCI/ADR-RES ovarian
CAKI-1 renal = tested on: CAKI-1 renal
SW-620 colon = tested on: SW-620 colon

## CN1C(=O)/C(=C/c2c(Cl)n(C)c3ccccc23)c2ccccc21
UACC-62 melanoma
  GI50: 2.8 µM
U251 CNS
  GI50: 3.7 µM and 1.73 µM
  TGI: 3.16 µM
MOLT-4 leukemia
  GI50: 1.88 µM and 0.245 µM
  TGI: 0.756 µM
SN12C renal
  GI50: 1.82 µM
  TGI: 9.33 µM
UACC-257 melanoma
  GI50: 4.53 µM
HOP-62 NSCLC
  GI50: 2.99 µM
  TGI: 8.96 µM
SK-MEL-28 melanoma
  GI50: 5.24 µM and 1.62 µM
  TGI: 3.05 µM
M14 melanoma
  GI50: 2.81 µM and 1.32 µM
  TGI: 2.8 µM
OVCAR-5 ovarian
  GI50: 3.61 µM and 1.85 µM
  TGI: 3.25 µM
NCI-H23 lung
  GI50: 1.92 µM and 1.56 µM
  TGI: 5.96 µM and 2.94 µM
SF-268 CNS
  GI50: 9.2 µM
PC-3 prostate
  GI50: 2.67 µM
SNB-19 CNS
  GI50: 6.84 µM
SNB-75 CNS
  GI50: 4.51 µM and 1.96 µM
  TGI: 3.62 µM
RXF 393 renal
  GI50: 7.89 µM and 1.56 µM
  TGI: 3.84 µM
TK-10 renal
  GI50: 9.52 µM and 1.38 µM
  TGI: 2.67 µM
NCI-H226 lung
  GI50: 5.05 µM
MDA-MB-435
  GI50: 1.89 µM and 1.69 µM
  TGI: 4 µM and 3.13 µM
HT29 colon
  GI50: 4.37 µM and 5.57 µM
  TGI: 17.8 µM
A549 NSCLC
  GI50: 7.78 µM
HS 578T breast
  GI50: 3.46 µM and 2.42 µM
  TGI: 9.29 µM and 5.34 µM
SK-MEL-5 melanoma
  GI50: 2.1 µM and 1.96 µM
  TGI: 6.51 µM and 3.46 µM
HL-60(TB) leukemia
  GI50: 0.44 µM
  TGI: 10.2 µM
ACHN renal
  GI50: 4.85 µM and 1.7 µM
  TGI: 3.11 µM
COLO 205 colon
  GI50: 4.59 µM and 0.485 µM
  TGI: 1.63 µM
HOP-92 NSCLC
  GI50: 1.8 µM
  TGI: 3.34 µM
SK-MEL-2 melanoma
  GI50: 5 µM
NCI-H460 lung
  GI50: 6.17 µM and 2.84 µM
  TGI: > 100 µM
CCRF-CEM leukemia
  TGI: > 100 µM
NCI-H522 lung
  GI50: 5.12 µM
HCT-15 colon
  GI50: 2.69 µM and 1.89 µM
  TGI: 3.56 µM
786-0 renal
  GI50: 3.09 µM
MDA-MB-231 breast
  GI50: 1.99 µM
  TGI: 8.59 µM
HCT-116 colon
  TGI: 1.39 µM
SF-295 CNS
  GI50: 2.74 µM and 1.58 µM
  TGI: 7.76 µM and 2.99 µM
LOX IMVI melanoma
  GI50: 4.79 µM
BT-549 breast
  GI50: 3.31 µM
  TGI: 9.25 µM
RPMI-8226 leukemia
  GI50: 1.53 µM
  TGI: 3.94 µM
T-47D breast
  TGI: 0.825 µM
DU-145 prostate
  GI50: 5.05 µM
EKVX NSCLC
  GI50: 2.11 µM
  TGI: 6.03 µM
OVCAR-4 ovarian
  GI50: 8.99 µM and 1.82 µM
  TGI: 3.45 µM
MALME-3M melanoma
  GI50: 7.07 µM
K-562 leukemia
  GI50: 3.15 µM
SK-OV-3 ovarian
  GI50: 4.84 µM and 1.57 µM
  TGI: 2.91 µM
OVCAR-8 ovarian
  GI50: 5.49 µM
IGROV1 ovarian
  GI50: 4.34 µM
OVCAR-3 ovarian
  GI50: 2.05 µM and 1.45 µM
  TGI: 5.17 µM and 2.76 µM
UO-31 renal
  GI50: 8 µM and 1.24 µM
  TGI: 2.75 µM
MCF7 breast
  GI50: 3.02 µM and 2.15 µM
  TGI: > 100 µM
KM12 colon
  GI50: 3.34 µM and 1.31 µM
  TGI: 3.49 µM
NCI/ADR-RES ovarian
  GI50: 1.92 µM
  TGI: 5.17 µM
CAKI-1 renal
  GI50: 3.3 µM and 1.43 µM
  TGI: 2.77 µM
SW-620 colon
  GI50: 5.07 µM
